{"source": "paper PMC8922279", "about": "“Identification of β-Lactams Active against Mycobacterium tuberculosis by a Consortium of Pharmaceutical Companies and Academic Institutions” (ACS Infectious Diseases, 2022)", "key": {"[1]": {"test": "In vitro plasma stability, cynomolgus monkey plasma", "conditions": "monkey, plasma"}, "[2]": {"conditions": "female, 129sv DHP-1 knockout, mouse, in vivo"}, "in vivo": {"test": "in vivo", "conditions": "female, 129sv DHP-1 knockout, mouse, sc"}, "[3]": {"test": "Caco-2 permeability / efflux transporter substrate", "conditions": "human"}, "Caco-2 cells": {"test_system": "Caco-2 cells", "test": "Caco-2 permeability / efflux transporter substrate", "conditions": "Caco-2"}, "[4]": {"test": "In vitro plasma stability, SD rat plasma", "conditions": "SD, rat, plasma, Plasma stability % Remaining, 37 °C, time point 120 min"}, "wild-type Mtb H37Rv": {"test_system": "wild-type Mtb H37Rv", "assay_type": "in vivo, 129sv DHP-1 knockout mice", "conditions": "for Log10 CFU per mouse (lungs), Mean: days 9-15, lungs day 16, untreated day 16 mean 9.1"}, "[5]": {"test": "Stability in simulated gastric fluid (SGF)", "conditions": "simulated gastric fluid (SGF), pH 1.2"}, "Mtb ΔpanCDΔlysA": {"test_system": "Mtb ΔpanCDΔlysA", "assay_type": "cell-based, Mycobacterium tuberculosis", "conditions": "MIC90 in presence vs absence of 4 μg/mL clavulanate, replicating Mtb"}, "[6]": {"test": "In vitro plasma stability, human plasma", "conditions": "human, plasma, Plasma stability % Remaining, 37 °C, time point 120 min"}, "[7]": {"test": "In vitro plasma stability, CD-1 mouse plasma", "conditions": "male, CD-1, mouse, plasma, Plasma stability % Remaining, Mouse, 37 °C, time point 120 min"}, "[8]": {"test": "In vitro plasma stability, beagle dog plasma", "conditions": "beagle, dog, plasma"}, "[9]": {"test": "Stability in fasted simulated intestinal fluid (FaSSIF)", "conditions": "fasted simulated intestinal fluid (FaSSIF), pH 6.5, FaSSIF Stability, % remaining, pH 6.5, room temperature"}}, "note": "Read-outs that look alike come from different tables or passages of the source.", "data": [{"smiles": "C[C@@H](O)[C@H]1C(=O)N2C(C(=O)O)=C(S[C@@H]3CN[C@H](C(=O)N(C)C)C3)[C@H](C)[C@H]12", "note": "[Meropenem, reference compound]", "values": [{"measurement": "remaining at 2 h, 2 μM", "setting": "[1]", "result": 99.9, "unit": "%"}, {"measurement": "Tlast", "setting": "[2]", "result": 1.0, "unit": "h"}, {"measurement": "AUC(0-t)", "setting": "in vivo; 50 mg/kg", "result": 387, "unit": "ng·h/mL"}, {"measurement": "Cmax", "setting": "in vivo; 50 mg/kg", "result": 724, "unit": "ng/mL"}, {"measurement": "Tmax", "setting": "in vivo; 50 mg/kg", "result": 30, "unit": "min"}, {"measurement": "AUC(0-t)", "setting": "in vivo; 300 mg/kg", "result": 2000, "unit": "ng·h/mL"}, {"measurement": "Cmax", "setting": "in vivo; 300 mg/kg", "result": 3340, "unit": "ng/mL"}, {"measurement": "Tmax", "setting": "in vivo; 300 mg/kg", "result": 30, "unit": "min"}, {"measurement": "Papp A→B at 120 min, 3 μM", "setting": "[3]; Caco-2, pH 7.4", "result": "< 0.26", "unit": "×10⁻⁶ cm/s"}, {"measurement": "Papp B→A at 120 min, 3 μM", "setting": "[3]; Caco-2, pH 7.4", "result": "< 0.24", "unit": "×10⁻⁶ cm/s"}, {"measurement": "recovery at 120 min, 3 μM", "setting": "[3]; Caco-2, pH 7.4, Caco-2 Mean Recovery % A to B", "result": "< 91", "unit": "%"}, {"measurement": "recovery at 120 min, 3 μM", "setting": "[3]; Caco-2, pH 7.4, Caco-2 Mean Recovery % B to A", "result": "< 94.2", "unit": "%"}, {"measurement": "Caco-2 Rank Papp", "setting": "Caco-2 cells", "result": "Low"}, {"measurement": "remaining at 2 h, 2 μM", "setting": "[4]", "result": 57.7, "unit": "%"}, {"measurement": "Log10 CFU per mouse (lungs), Mean", "setting": "wild-type Mtb H37Rv; 50 mg/kg sc bid + clavulanate 100 mg/kg po bid", "result": 7.6, "unit": "Log10 CFU"}, {"measurement": "Log10 CFU per mouse (lungs), Mean", "setting": "wild-type Mtb H37Rv; 300 mg/kg sc bid + clavulanate 100 mg/kg po bid", "result": 7.1, "unit": "Log10 CFU"}, {"measurement": "effect on lung CFU (in words)", "setting": "wild-type Mtb H37Rv; mouse, in vivo", "result": "bacteriostatic impact"}, {"measurement": "remaining at 1 h, 10 μM", "setting": "[5]", "result": 111, "unit": "%"}, {"measurement": "remaining at 24 h, 10 μM", "setting": "[5]", "result": 100, "unit": "%"}, {"measurement": "clavulanate shift of MIC90", "setting": "Mtb ΔpanCDΔlysA", "result": "~8", "unit": "fold"}, {"measurement": "remaining at 2 h, 2 μM", "setting": "[6]", "result": 70.6, "unit": "%"}, {"measurement": "remaining at 2 h, 2 μM", "setting": "[7]", "result": 74.7, "unit": "%"}, {"measurement": "remaining at 2 h, 2 μM", "setting": "[8]", "result": 75.2, "unit": "%"}, {"measurement": "remaining at 6 h, 10 μM", "setting": "[9]; 6h", "result": 94.1, "unit": "%"}, {"measurement": "remaining at 24 h, 10 μM", "setting": "[9]; 24h", "result": 76.8, "unit": "%"}]}]}
